The test system of one data set is rat. The following applies: cited from earlier work.
In data set [1] the test system is mouse. The settings on record: cited from earlier work.
In another data set the test system is dog. The settings on record: cited from earlier work.
The next data set relates to Kunming mice. In words: Effect on mouse's spontaneous activities. The class given is in vivo. The following applies: positive control 2 mg/kg. The method, then: (Bibliography: 1. Xu, Shuyun Pharmacological Test Methodology, 2nd version, P.641, People Health Press, Beijing, 1991. 2. Medicine Secretary for the Ministry of Health, Guidelines on Preclinical Study of New Pharmaceuticals (weaten drugs), P. 42, July, 1993.) • 1. […] Effect on mouse's spontaneity times: (see Table 15).
Effect on the frequency of mice' spontaneous activities: healthy mice, and 50 mice whose frequency of activities was 220-320 within 5 min were selected and randomly divided into five groups, the establishment of dosages were the same as the above. The frequency of activity at o min were measured before drug administration, and then were conducted by intragastric administration, 30, 60, 120 and 180 min later, the frequency of activities within 5 min was measured and recorded respectively, then compared with that of the control group. The measuring time was the period between 9:00 am and 4:00 pm each day. A Six-light channel spontaneous activity instrument was used for one mouse, kept at 24-26° C. of room temperature of; and kept quiet; the test was carried out after the test boxes were covered with black cloth.

The nature of another data set: physchem. The following applies: phosphate buffer, 25 °C, pH 6.86, aqueous buffer, thermodynamic from solid.
The nature of data set [2]: Solubilizing test of puerarin. The class given is physicochemical. The settings on record: 25 °C, pH 6.86, aqueous buffer, thermodynamic from solid. The source says:
The standard curve was plotted by concentration C against A (μg/mL) to obtain A=66.608 C+0.0017 R2=0.9999.

Another data set has as its system red blood cells. Put plainly: Hemolytic test. The class given is cell-based. The following applies: 5% rabbit red blood cell suspension, 37° C., 30 min. How it is done:
Under the present invention, using β-CD, HP-β-CD, SBE7-β-CD, SBE4-β-CD as controls, the hemolytic test results of 11 kinds of compounds are selected, shown in Table 13 and FIG. 9-FIG. 11.
10 ml of fresh rabbit blood were fetched to a clean conical flask, stirred with glass rod for 10 min to remove the fibers, then added with about 20 times of normal saline solution and placed in the centrifuge, 1500 rps/min, for about 3 min, then the supernatant was removed, washed repeated for several times until the supernatant solution becomes clear. The prepared red blood cells were prepared to 5% of suspension by normal saline solution. (Reference: State Drug Administration, Technical requirement of TCM injection study, Technical requirement of TCM new drug study, 1999, 11, 12)

Data set [3] is described as follows: Inclusion constant with prazosin hydrochloride, UV spectrophotometry. In kind it is binding. The following applies: PBS pH 6.86, 250 nm. The source says: PBS of PH6.86 was used to prepare hydrochloride prazosin dilute solution, and this dilute solution was used to prepare HP4-SBE2-β-CD sample solution. […] A line by 1/ΔA against 1/[CD]0 was plotted, and the inclusion constant Ka of prazosin hydrochloride/HP4-SBE2-β-CD can be obtained according to the value of intercept/slope.

Data set [4] can be described thus: Inclusion constant with ibuprofen, UV spectrophotometry. The class given is binding. The following applies: PBS pH 6.86, 265 nm.
Data set [5] in a line: Inclusion constant with puerarin, UV spectrophotometry. The following applies: PBS pH 6.86, 250 nm. In kind it is binding. The text has this:
PBS of PH6.86 was used to prepare puerarin dilute solution, and this dilute solution was used to prepare HP4-SBE2-β-CD sample solution. […] A straight line by 1/ΔA against 1/[CD]0 was plotted, and the inclusion constant Ka of puerarin/HP4-SBE2-β-CD can be obtained according to the value of intercept/slope.

For data set [6] the following is noted: 10-100.0 mg/kg; cited from earlier work.
In data set [7] the test system is mouse. The settings on record: 40 mg/kg, 120 mg/kg and 400 mg/kg; cited from earlier work.
In the next data set the test system is mouse stomach intestine. The settings on record: 120 mg/kg and 400 mg/kg; cited from earlier work.

≈ marks a conversion by molar mass, not a printed value. Where “and” joins values, the source holds several entries; their conditions need not be identical. Equal values may be shown once. Where a name gives a salt, the structure may show the parent alone. Read-outs that look alike come from different tables or passages of the source.

For `CC(O)CCO` (stereo not drawn) [1,3-Butylene glycol], the LD50 was 22.8 mg/kg and 23.31 mg/kg with rat (Oral); 20.06 mg/kg and 16.51 mg/kg in the data set on rat (subcutaneous injection).

Turning to `OCc1ccccc1` [Benzyl alcohol], the LD50 with mouse [1] (Oral) is recorded as 1580 mg/kg; with rat (Oral), 1230 mg/kg.

In the case of `O=C(OCc1ccccc1)c1ccccc1` [Benzyl benzoate], the LD50 in the data set with mouse [1] (Oral) is reported as 1400 mg/kg; in the data set on mouse [1] (cutaneous absorption) it was 4000 mg/kg.

On to `CN(C)C=O` [DMF], for which the LD50 in the data set on mouse [1] (Oral) is 2800 mg/kg; in the data set on mouse [1] (intraperitoneal injection), 1400 mg/kg; in the data set on mouse [1] (intravenous injection), 2000 mg/kg. Further, the LDLo with mouse [1] (subcutaneous injection) was 1000 mg/kg.

Take `C[S+](C)[O-]` [DMSO]: the LD50 in the data set with mouse [1] (Oral) was 16500 mg/kg; with mouse [1] (intraperitoneal injection) it was 3000 mg/kg; in the data set with mouse [1] (intravenous injection), 5750 mg/kg; with mouse [1] (subcutaneous injection), 14 mg/kg.

On to `CC(=O)OCC(COC(C)=O)OC(C)=O` [Glyceryl triacetate], for which the LD50 in the data set on mouse [1] (subcutaneous injection) is 2670 mg/kg and 3250 mg/kg.

Consider `OC[C@@H](O)[C@@H](O)[C@H](O)[C@H](O)CO` [Mannitol], for which the LD50 is 22 mg/kg with mouse [1] (Oral), 14 mg/kg in the data set on mouse [1] (intraperitoneal injection), 17 mg/kg in the data set on mouse [1] (intravenous injection) and 17 mg/kg in the data set with rat (Oral).

`CC(O)CO` (stereo not drawn) [Propylene glycol]: the values for the LD50 with dog (Oral) and in the data set on dog (intravenous injection) were 22 mg/kg and 26 mg/kg, respectively.

Turning to `CCC(C)(C)O` [amyl alcohol-tert], the LD50 was 2100 mg/kg in the data set with mouse [1] (subcutaneous injection) and 1000 mg/kg in the data set on rat (Oral).

Regarding `CN(C)CCCN1c2ccccc2Sc2ccc(Cl)cc21` [chloropromazine], the “frequency of spontaneous activities” value with Kunming mice (0 min) is on record as 302 ± 75 times/5 min; with Kunming mice (30 min), 57 ± 40 times/5 min; in the data set on Kunming mice (60 min), 16 ± 20 times/5 min; in the data set with Kunming mice (120 min), 22 ± 19 times/5 min; with Kunming mice (180 min), 25 ± 28 times/5 min.

Regarding `CCOC(=O)C(C)O` (stereo not drawn) [ethyl lactate], the LD50 is given as 0.6 (ml) with mouse [1] (intravenous injection) and 2.5 (ml) with mouse [1] (subcutaneous injection).

As a reminder, the solubility is the concentration that dissolves in the medium under given conditions. `COc1cc2nc(N3CCN(C(=O)c4ccco4)CC3)nc(N)c2cc1OC` [prazosin hydrochloride] showed a solubility at 12 h in “physchem” of 0.0495 µg/mL.

For the molecule `O=c1c(-c2ccc(O)cc2)coc2c([C@@H]3O[C@H](CO)[C@@H](O)[C@H](O)[C@H]3O)c(O)ccc12` [puerarin], the solubility at 12 h in [2] worked out at 5800 µg/mL (≈ 13.9 mM).

Consider `OC[C@H]1O[C@@H]2O[C@H]3[C@H](O)[C@@H](O)[C@@H](O[C@H]4[C@H](O)[C@@H](O)[C@@H](O[C@H]5[C@H](O)[C@@H](O)[C@@H](O[C@H]6[C@H](O)[C@@H](O)[C@@H](O[C@H]7[C@H](O)[C@@H](O)[C@@H](O[C@H]8[C@H](O)[C@@H](O)[C@@H](O[C@H]1[C@H](O)[C@H]2O)O[C@@H]8CO)O[C@@H]7CO)O[C@@H]6CO)O[C@@H]5CO)O[C@@H]4CO)O[C@@H]3CO` [β-CD, β-cyclodextrin], for which, in the data set with red blood cells, the “Concentration when the degree of hemolysis of 50 percent” value amounted to 1140 µg/mL and the concentration without hemolysis worked out at 280 µg/mL. In the data set with mouse [1] (intraperitoneal injection), the LD50 is reported as 788 mg/kg.

With PEG400, the LD50 is listed as 4200 mg/kg in the data set on mouse [1] (intraperitoneal injection) and 10 (ml) with mouse [1] (subcutaneous injection).

Consider Sodium deoxycholate, for which the LD50 in the data set on mouse [1] (Oral) is recorded as 815 mg/kg; with mouse [1] (intraperitoneal injection), 1400 mg/kg; with mouse [1] (subcutaneous injection) it was 75 mg/kg.

Turning to hydroxypropyl-β-CD [HP-β-CD], the “inclusion constant Ka” value in data set [3] was found to be 597; in data set [4], 221; in [5], 345. The “Concentration when the degree of hemolysis of 50 percent” value in the data set on red blood cells is 12610 µg/mL. Further, in the data set with red blood cells, the concentration without hemolysis was 8160 µg/mL. Moreover, in [6], the “effect on respiratory amplitude, respiratory frequency, blood pressure and ECG” value is “no obvious effect”. Besides, the “effect on mouse fasting blood glucose” value in the data set on mouse [7] is recorded as “no obvious effect on mouse fasting blood glucose”. Moreover, in the data set on mouse stomach intestine, the “impellent function of mouse stomach intestine” value is “slight reduction”.

The values are drawn from US8278437B2, “Hydroxypropyl-sulfobutyl-beta-cyclodextrin, the preparation method, the analytical method, and the pharmacutical application thereof” (priority 2005, dated 2012).
